The subject of assay [1] is A549. As to the kind of experiment: cells. The following applies: Homo sapiens, A549, 48 h.
Description: Cytotoxicity against human A549 cells after 48 hrs by MTT assay
For a further assay, the system named is HeLa. As to the kind of experiment: cells. The following applies: Homo sapiens, 48 h.
Assay [2] in a line: Cytotoxicity against human FR2 cells after 48 hrs by MTT assay. The format is cell-based. The following applies: FR2, 48 h. (Formazan colour is commonly taken as a measure of viable cells.)
The nature of assay [3]: Cytotoxicity against human PC3 cells after 48 hrs by MTT assay. The class given is functional, cell-based. The note with it: PC-3, 48 h.
For assay [4], the system named is A549. As to the kind of experiment: Cell cycle arrest in human A549 cells assessed as accumulation at S phase at 30 uM after 24 hrs by propidium iodide staining-based flow cytometric analysis (reference value: 26%). The format is functional. (In general: Flow cytometry measures light scatter and fluorescence of single cells or particles in a stream.)
The subject of assay [5] is A549. As to the kind of experiment: Cell cycle arrest in human A549 cells assessed as accumulation at G1 phase at 10 uM after 24 hrs by propidium iodide staining-based flow cytometric analysis (reference value: 69%). The class given is functional.
Assay [6] concerns A549. Briefly: Cell cycle arrest in human A549 cells assessed as accumulation at sub-G0 phase at 30 uM after 24 hrs by propidium iodide staining-based flow cytometric analysis (reference value: 5%). The format is functional.
Assay [7] concerns A549. As to the kind of experiment: Downregulation of alpha-tubulin protein expression in human A549 cells at 10 to 30 uM after 24 hrs by Western blot analysis. The format is functional, cell-based. On the technique in general: Immunoblotting shows a protein as a band on a membrane.
In assay [8] the test system is A549. Briefly: Downregulation of beta-tubulin protein expression in human A549 cells at 10 to 30 uM after 24 hrs by Western blot analysis. The class given is functional, cell-based.
Assay [9] relates to A549. As to the kind of experiment: Cell cycle arrest in human A549 cells assessed as increase in hypo diploid sub-G0 DNA fraction after 24 hrs by propidium iodide staining-based flow cytometric analysis. The class given is functional.
Assay [10] deals with A549. As to the kind of experiment: Cell cycle arrest in human A549 cells assessed as accumulation at G2/M phase at 30 uM after 24 hrs by propidium iodide staining-based flow cytometric analysis (reference value: 5%). The class given is functional.
In assay [11] the test system is A549. Briefly: Cell cycle arrest in human A549 cells assessed as accumulation at G2/M phase at 10 uM after 24 hrs by propidium iodide staining-based flow cytometric analysis (reference value: 5%). The class given is functional.
For assay [12], the system named is A549. Briefly: Induction of apoptosis in human A549 cells assessed as formation of multiple apoptotic bodies at 10 to 30 uM after 24 hrs by Hoechst 33258 staining-based inverted fluorescence microscopic analysis. The format is functional, cell-based.
Assay [13] concerns A549. Briefly: Cell cycle arrest in human A549 cells assessed as accumulation at S phase at 10 uM after 24 hrs by propidium iodide staining-based flow cytometric analysis (reference value: 26%). The format is functional.
The subject of assay [14] is A549. As to the kind of experiment: Induction of apoptosis in human A549 cells assessed as […] at 10 to 30 uM after 24 hrs by phase contrast microscopic analysis. The format is functional, cell-based.
For assay [15], the system named is A549. Briefly: Cell cycle arrest in human A549 cells assessed as accumulation at G1 phase at 30 uM after 24 hrs by propidium iodide staining-based flow cytometric analysis (reference value: 69%). The format is functional.
The subject of assay [16] is A549. Briefly: Cell cycle arrest in human A549 cells assessed as accumulation at sub-G0 phase at 10 uM after 24 hrs by propidium iodide staining-based flow cytometric analysis (reference value: 5%). The format is functional.
Assay [17] deals with A549. As to the kind of experiment: Induction of apoptosis in human A549 cells assessed as cellular blebs at 10 to 30 uM after 24 hrs by phase contrast microscopic analysis. The format is functional, cell-based.
The test system of assay [18] is A549. As to the kind of experiment: Induction of apoptosis in human A549 cells assessed as shrinkage of cell size at 10 to 30 uM after 24 hrs by phase contrast microscopic analysis. The class given is functional, cell-based.
For assay [19], the system named is A549. As to the kind of experiment: Cell cycle arrest in human A549 cells assessed as accumulation at G2/M phase at 1 uM by propidium iodide staining-based flow cytometric analysis (reference value: 5%). The class given is functional.

pIC50: −log10 of the molar value. The source made the active and inactive calls. The calls are words filed in the database; no cut-off is given here. Where only a bound is given, the exact number is not on record here.

Description for HeLa: Cytotoxicity against human HeLa cells after 48 hrs by MTT assay

For `COc1ccc(C[C@@H]2NC(=O)/C=C/C[C@@H](c3c(F)c(F)c(F)c(F)c3F)OC(=O)[C@H](CC(C)C)OC(=O)CCNC2=O)cc1`, the pIC50 (as a rule, the negative decadic logarithm of the IC50, by convention in mol/L) was below 4.00 in the assay with A549 [1], 4.00 with HeLa, 4.10 in [2] and 4.00 in assay [3].
In the case of `COc1ccc(C[C@@H]2NC(=O)/C=C/C[C@@H](c3ccccc3[N+](=O)[O-])OC(=O)[C@H](CC(C)C)OC(=O)CCNC2=O)cc1`, the pIC50 was 4.89 in the assay on A549 [1], 4.33 in the assay on HeLa, 4.05 in assay [2] and 4.00 in assay [3].
`COc1ccc(C[C@H]2NC(=O)/C=C/C[C@@H](c3ccccc3[N+](=O)[O-])OC(=O)[C@H](CC(C)C)OC(=O)CCNC2=O)cc1`: the pIC50 with A549 [1] is 4.82; with HeLa it was 4.54; in assay [2] it was below 4.00; in [3], 4.17.
Regarding `COc1ccc(C[C@H]2NC(=O)/C=C/C[C@@H](c3ccc([N+](=O)[O-])cc3)OC(=O)[C@H](CC(C)C)OC(=O)CCNC2=O)cc1`, the negative logarithm of the IC50 (pIC50) is 5.00 in the assay on A549 [1], 4.55 in the assay with HeLa, 4.01 in assay [2] and 4.82 in assay [3]. Moreover, the Activity in the assay on A549 [4] is 30%; in the assay with A549 [5], 59%; in the assay with A549 [6] it was 26%; in the assay on A549 [9], “Dose-dependent effect”; in the assay on A549 [10], 8%; in the assay on A549 [11] it was 6%. Further, the Activity in the assay on A549 [13] is 35%; in the assay with A549 [15], 62%; in the assay with A549 [16], 11%. In addition, the result with A549 [7], in the assay with A549 [8], in the assay on A549 [12], in the assay with A549 [14], in the assay on A549 [17] and with A549 [18] was Active.
In the case of `COc1ccc(C[C@H]2NC(=O)/C=C/C[C@@H](c3cccc([N+](=O)[O-])c3)OC(=O)[C@H](CC(C)C)OC(=O)CCNC2=O)cc1`, the pIC50 (with A549 [1]; in the assay with HeLa; in assay [2]; in [3]) was below 4.00 in each case.
Consider `CC(=O)O[C@H]1C(=O)[C@@]2(C)[C@H]([C@H](OC(=O)c3ccccc3)[C@]3(O)C[C@H](OC(=O)[C@H](O)[C@@H](NC(=O)c4ccccc4)c4ccccc4)C(C)=C1C3(C)C)[C@]1(OC(C)=O)CO[C@@H]1C[C@@H]2O` [PACLITAXEL], for which the values for the pIC50 (in the assay with A549 [1]; in assay [2]; in assay [3]) were 7.60, 4.80 and 7.92, respectively. The Activity in the assay on A549 [19] was 45%.
Take `COc1ccc(C[C@@H]2NC(=O)/C=C/C[C@@H](c3ccc(Br)cc3)OC(=O)[C@H](CC(C)C)OC(=O)CCNC2=O)cc1`: the pIC50 with A549 [1] was 4.25; in the assay with HeLa, 4.22; in [2] it was below 4.00; in assay [3], 4.17.
For the compound `COc1ccc(C[C@H]2NC(=O)/C=C/C[C@@H](c3ccc(Br)cc3)OC(=O)[C@H](CC(C)C)OC(=O)CCNC2=O)cc1`, the pIC50 with A549 [1] is 4.22; in the assay with HeLa it was 4.26; in assay [2] it was 4.06; in [3], 4.22.
For `COc1ccc(C[C@@H]2NC(=O)/C=C/C[C@@H](c3ccc(Cl)cc3Cl)OC(=O)[C@H](CC(C)C)OC(=O)CCNC2=O)cc1`, the negative logarithm of the IC50 (pIC50) in the assay with A549 [1] is 4.35; in the assay on HeLa, 4.48; in assay [2] it was below 4.00; in assay [3] it was 4.49.
`COc1ccc(C[C@H]2NC(=O)/C=C/C[C@@H](c3c(F)c(F)c(F)c(F)c3F)OC(=O)[C@H](CC(C)C)OC(=O)CCNC2=O)cc1`: the negative logarithm of the IC50 (pIC50) in the assay on A549 [1] is 4.52; in the assay on HeLa, 4.11; in assay [2] it was below 4.00; in [3] it was 4.15.
Take `COc1ccc(C[C@H]2NC(=O)/C=C/C[C@@H](c3ccc(Cl)cc3Cl)OC(=O)[C@H](CC(C)C)OC(=O)CCNC2=O)cc1`: the negative-log IC50 (pIC50) in the assay with A549 [1] is 4.00; in the assay with HeLa, 4.05; in [2], below 4.00; in assay [3] it was 4.00.
Consider `COc1ccc(C[C@@H]2NC(=O)/C=C/C[C@@H](c3cccc([N+](=O)[O-])c3)OC(=O)[C@H](CC(C)C)OC(=O)CCNC2=O)cc1`, for which the negative-log IC50 (pIC50) is 4.05 in the assay on A549 [1], 4.46 in the assay on HeLa, 4.03 in assay [2] and 4.00 in assay [3].
For `COc1ccc(C[C@@H]2NC(=O)/C=C/C[C@@H](c3ccc([N+](=O)[O-])cc3)OC(=O)[C@H](CC(C)C)OC(=O)CCNC2=O)cc1`, the pIC50 in the assay on A549 [1] was 4.96; in the assay with HeLa, 4.40; in assay [2], 4.11; in assay [3], 4.15. The Activity with A549 [4] was 1%; with A549 [5], 65%; in the assay with A549 [6], 49%; in the assay on A549 [9], “Dose-dependent effect”; in the assay on A549 [10], 19%; in the assay with A549 [11] it was 10%. For the same compound, the Activity came to 25% in the assay on A549 [13], 80% in the assay with A549 [15] and 19% with A549 [16]. Besides, the outcome in the assay on A549 [7], in the assay on A549 [8], in the assay with A549 [12], with A549 [14], in the assay with A549 [17] and in the assay with A549 [18] was Active.

These data come from ChEMBL document CHEMBL3407408, “Design and synthesis of a new class of cryptophycins based tubulin inhibitors” (Eur J Med Chem, 2015).
